This is an account of results in US11773062B2, “Deuterated compounds” (priority 2021, dated 2023).

The nature of data set [1]: In vitro mouse hepatocytic intrinsic clearance. The following applies: male, CD-1, mouse, hepatocytes.
In data set [2] the target is T1, CYP2D6 (Homo sapiens, UniProt P10635). Description: CYP phenotyping, CYP bactosomes.
Description: (§5) The CYPs used in this study are heterologously expressed in E. coli and purchased as individualised forms (CYP bactosomes) from CYPEX. Bactosomes contain recombinant CYP isoenzymes combined with CYP reductase leading to a higher specific activity than liver microsomes.
(§6) Phosphate buffer is prepared at 0.1 M, pH 7.4 by combining 0.1 M Na2HPO4 and 0.1 M KH2PO4 solutions.
(§7) Nicotinamide adenine dinucleotide 2′-phosphate reduced tetrasodium salt hydrate (NADPH) is prepared at 10 m<in 0.1 M phosphate buffer (pH 7.4).
(§8) The individual CYP bactosomes are thawed at room temperature undiluted to 200 pmol/mL and 0.1 M phosphate buffer.
(§9) Standard final incubation conditions are 1-3 μM compound in a buffer containing 100 pmol/mL CYP bactosome, 1% (v/v) DMSO.
(§10) The elimination rate constant (k) is calculated using the slope of a ln (MS peak area or response—if internal standard is used) vs. time plot of the test compounds and markers.
(§11) Intrinsic clearance in μL/min/nmol CYP is calculated using the following equation: Clint=−1000 k/CYP concentration
(§12) Projected CYP isoform intrinsic clearance accounting for estimated CYP abundance in human liver microsomes (μL/min/mg microsomal protein)* is calculated using the following equation: Projected set isoform intrinsic clearance=Estimated CYP abundance*Clint * Estimated CYP abundance is taken as an average from three literature references 1, 2 3 and the abundances used are as follows (nmol CYP/mg Human Liver Microsomal Protein):
A short description of data set [3]: Human liver mitochondrial fraction intrinsic clearance of SPL026 with/without MAO-A and MAO-B inhibitors. It is filed as in vitro ADME. From the text: (§1) Human Liver Mitochondrial (HLMt) fractions contain high quantities of MAO enzymes and therefore, provide a useful tool to measure the clearance of MAO substrates.
In the next data set the target is CYP3A5 (Homo sapiens, UniProt P20815). Description: in vitro. Here is the method: (§2) Samples were taken at predetermined time points.
(§3) Samples were then centrifuged at −4° C.
(§4) Positive control markers are as specified in Table 11.

The target in the next data set is T2, CYP2C8 (Homo sapiens, UniProt P10632).
T2 sequence (P10632 1-490): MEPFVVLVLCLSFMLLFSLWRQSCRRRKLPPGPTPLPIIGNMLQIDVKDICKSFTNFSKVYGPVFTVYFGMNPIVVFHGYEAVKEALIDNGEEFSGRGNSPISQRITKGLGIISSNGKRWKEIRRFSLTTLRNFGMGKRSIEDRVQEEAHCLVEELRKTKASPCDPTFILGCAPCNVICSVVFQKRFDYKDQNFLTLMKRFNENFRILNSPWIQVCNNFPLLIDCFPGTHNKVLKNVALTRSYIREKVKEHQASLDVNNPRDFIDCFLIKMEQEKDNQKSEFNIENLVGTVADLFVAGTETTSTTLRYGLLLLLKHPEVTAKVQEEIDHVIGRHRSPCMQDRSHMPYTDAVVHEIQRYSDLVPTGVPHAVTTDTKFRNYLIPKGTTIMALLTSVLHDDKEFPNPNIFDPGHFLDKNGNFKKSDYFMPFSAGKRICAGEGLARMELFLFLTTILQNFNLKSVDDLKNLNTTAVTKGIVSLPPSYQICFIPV
Put plainly: in vitro. As to the method: as §2, §3, §4

A further data set deals with T3, CYP2B6 (Homo sapiens, UniProt P20813).
T3 sequence (P20813 1-491): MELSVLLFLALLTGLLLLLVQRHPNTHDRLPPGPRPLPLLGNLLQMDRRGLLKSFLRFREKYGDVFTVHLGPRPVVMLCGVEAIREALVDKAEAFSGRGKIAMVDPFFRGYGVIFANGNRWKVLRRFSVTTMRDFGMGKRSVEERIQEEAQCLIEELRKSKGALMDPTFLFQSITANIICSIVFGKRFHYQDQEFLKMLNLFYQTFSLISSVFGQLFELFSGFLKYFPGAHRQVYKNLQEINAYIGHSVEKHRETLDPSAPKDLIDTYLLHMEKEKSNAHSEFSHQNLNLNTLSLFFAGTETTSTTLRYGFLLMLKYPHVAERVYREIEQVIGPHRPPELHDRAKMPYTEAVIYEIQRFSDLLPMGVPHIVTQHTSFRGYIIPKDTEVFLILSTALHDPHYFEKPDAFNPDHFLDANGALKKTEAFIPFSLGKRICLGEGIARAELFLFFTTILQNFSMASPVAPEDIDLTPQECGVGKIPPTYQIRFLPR
Put plainly: in vitro. As to the method:
as §2, §3, §4

For a further data set, the target named is T4, CYP1A2 (Homo sapiens, UniProt P05177).
T4 sequence (P05177 1-516): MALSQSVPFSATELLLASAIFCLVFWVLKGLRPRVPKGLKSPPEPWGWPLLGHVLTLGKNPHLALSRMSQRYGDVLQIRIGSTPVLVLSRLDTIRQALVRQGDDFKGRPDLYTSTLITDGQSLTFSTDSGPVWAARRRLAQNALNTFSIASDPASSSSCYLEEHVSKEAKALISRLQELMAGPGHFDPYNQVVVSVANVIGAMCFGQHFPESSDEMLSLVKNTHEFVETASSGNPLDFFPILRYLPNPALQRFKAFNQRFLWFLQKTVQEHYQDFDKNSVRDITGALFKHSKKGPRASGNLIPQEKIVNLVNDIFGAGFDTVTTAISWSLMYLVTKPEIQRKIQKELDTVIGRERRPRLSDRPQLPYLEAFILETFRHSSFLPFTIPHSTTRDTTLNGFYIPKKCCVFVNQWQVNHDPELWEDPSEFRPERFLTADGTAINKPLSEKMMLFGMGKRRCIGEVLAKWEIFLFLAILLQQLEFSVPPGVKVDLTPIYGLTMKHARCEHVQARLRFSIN
Description: in vitro. Here is the method:
as §2, §3, §4

In data set [4] the target is T1, CYP2D6.
Description: as §5, §6, §7, §8, §9, §10, §11, §12
The target of a further data set is CYP2C9 (Homo sapiens, UniProt P11712). Description: CYP phenotyping, CYP bactosomes. As to the method: as §2, §3, §4
A further data set concerns the target CYP2C19 (Homo sapiens, UniProt P33261). Description: CYP phenotyping, CYP bactosomes. As to the method:
as §2, §3, §4

Another data set concerns the target CYP3A4 (Homo sapiens, UniProt P08684). Description: CYP phenotyping, CYP bactosomes. As to the method: as §2, §3, §4
Data set [5] can be described thus: Human liver mitochondrial fraction intrinsic clearance of SPL026, SPL028i, SPL028iii, SPL028viii. The format is in vitro ADME. Particulars: 0.5 mg/mL human liver mitochondrial fraction (Table 10).
Source text: as §1

The subject of data set [6] is human (mixed gender) hepatocytes. Put plainly: In vitro intrinsic clearance in human hepatocytes with and without MAO-A/B inhibitor combination (first experiment).
Description: Standard final incubation conditions are 1 μM compound in buffer containing nominally ˜0.5 million viable cells/mL, ˜0.9% (v/v) acetonitrile (MeCN) and ˜0.1% (v/v) DMSO (specific assay concentrations outlined above, section 2).
Samples are then centrifuged at 4° C.
Data set [7] addresses T1, CYP2D6. Put plainly: in vitro. Particulars: recombinant enzyme, pH 7.4.
Description: as §5, §6, §7, §8, §9, §10, §11, §12
The conditions of data set [8]: in vivo; cited from earlier work.
Where [9] appears, read: E. coli CYPEX membranes, 100 pmol/mL CYP.
Setting [10] is: human liver mitochondrial fraction, Deprenyl (MAO-B inhibitor) 100 nM.
Where [11] appears, read: human, recombinant enzyme, pH 7.4.
Where [12] appears, read: human hepatocytes, with MAO-A/B inhibitor combination (Table 5).
Where [13] appears, read: human hepatocytes, without MAO-A/B inhibitor combination (Table 5).

T1 sequence (P10635 whole entry): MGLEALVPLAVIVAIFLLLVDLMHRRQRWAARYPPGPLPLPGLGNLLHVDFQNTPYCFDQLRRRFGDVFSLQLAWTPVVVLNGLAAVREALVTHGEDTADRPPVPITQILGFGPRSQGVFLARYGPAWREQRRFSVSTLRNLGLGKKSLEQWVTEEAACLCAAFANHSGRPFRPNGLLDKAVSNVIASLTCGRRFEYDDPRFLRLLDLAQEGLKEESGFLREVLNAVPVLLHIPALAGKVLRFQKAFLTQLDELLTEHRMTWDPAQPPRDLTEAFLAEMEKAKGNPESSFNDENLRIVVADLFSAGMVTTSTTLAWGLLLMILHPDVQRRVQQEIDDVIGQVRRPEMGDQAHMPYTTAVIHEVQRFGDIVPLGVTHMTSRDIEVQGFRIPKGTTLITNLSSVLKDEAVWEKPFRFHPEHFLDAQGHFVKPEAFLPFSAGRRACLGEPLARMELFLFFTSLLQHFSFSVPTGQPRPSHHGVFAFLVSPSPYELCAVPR
Sequence of CYP2C19 (P33261 whole entry): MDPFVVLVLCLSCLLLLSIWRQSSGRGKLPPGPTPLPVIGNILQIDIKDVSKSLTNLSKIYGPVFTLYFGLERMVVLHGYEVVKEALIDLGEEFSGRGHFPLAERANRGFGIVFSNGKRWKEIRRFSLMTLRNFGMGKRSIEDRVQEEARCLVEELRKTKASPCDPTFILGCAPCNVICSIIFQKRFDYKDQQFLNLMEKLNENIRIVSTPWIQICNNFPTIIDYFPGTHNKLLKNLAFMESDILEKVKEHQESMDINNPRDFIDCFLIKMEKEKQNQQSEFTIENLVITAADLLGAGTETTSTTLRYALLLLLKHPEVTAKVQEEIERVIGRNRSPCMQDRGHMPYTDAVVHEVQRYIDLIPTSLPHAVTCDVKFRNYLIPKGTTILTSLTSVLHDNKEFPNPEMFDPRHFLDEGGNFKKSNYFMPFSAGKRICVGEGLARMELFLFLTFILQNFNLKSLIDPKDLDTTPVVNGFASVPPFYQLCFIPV
Sequence of CYP3A4 (P08684 whole entry): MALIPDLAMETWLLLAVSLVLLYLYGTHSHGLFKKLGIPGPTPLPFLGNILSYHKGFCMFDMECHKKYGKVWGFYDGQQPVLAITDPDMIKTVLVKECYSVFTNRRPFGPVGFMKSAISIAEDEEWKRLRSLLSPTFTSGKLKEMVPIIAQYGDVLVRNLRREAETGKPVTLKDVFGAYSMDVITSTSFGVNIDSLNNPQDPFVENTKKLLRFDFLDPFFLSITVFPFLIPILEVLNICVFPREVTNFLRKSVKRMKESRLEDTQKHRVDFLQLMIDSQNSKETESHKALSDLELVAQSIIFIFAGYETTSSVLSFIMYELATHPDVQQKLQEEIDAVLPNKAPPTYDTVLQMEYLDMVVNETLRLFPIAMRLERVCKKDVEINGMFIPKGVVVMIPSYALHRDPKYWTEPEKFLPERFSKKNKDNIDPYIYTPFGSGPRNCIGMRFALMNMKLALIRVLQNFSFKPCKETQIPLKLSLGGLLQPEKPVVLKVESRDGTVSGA
Sequence of CYP2C9 (P11712 whole entry): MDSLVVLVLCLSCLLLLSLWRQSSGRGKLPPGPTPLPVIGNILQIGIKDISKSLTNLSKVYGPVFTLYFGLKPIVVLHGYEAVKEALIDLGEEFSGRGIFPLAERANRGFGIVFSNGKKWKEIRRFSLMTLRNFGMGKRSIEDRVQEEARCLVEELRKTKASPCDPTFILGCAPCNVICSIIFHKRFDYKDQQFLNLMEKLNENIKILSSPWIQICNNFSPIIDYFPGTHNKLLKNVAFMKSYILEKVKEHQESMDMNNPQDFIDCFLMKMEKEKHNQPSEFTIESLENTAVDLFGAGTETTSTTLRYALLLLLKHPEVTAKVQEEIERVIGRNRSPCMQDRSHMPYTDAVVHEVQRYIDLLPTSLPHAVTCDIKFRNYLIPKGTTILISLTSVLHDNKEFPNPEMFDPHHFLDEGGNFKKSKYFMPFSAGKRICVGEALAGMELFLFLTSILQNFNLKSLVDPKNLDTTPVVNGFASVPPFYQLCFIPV
Sequence of CYP3A5 (P20815 whole entry): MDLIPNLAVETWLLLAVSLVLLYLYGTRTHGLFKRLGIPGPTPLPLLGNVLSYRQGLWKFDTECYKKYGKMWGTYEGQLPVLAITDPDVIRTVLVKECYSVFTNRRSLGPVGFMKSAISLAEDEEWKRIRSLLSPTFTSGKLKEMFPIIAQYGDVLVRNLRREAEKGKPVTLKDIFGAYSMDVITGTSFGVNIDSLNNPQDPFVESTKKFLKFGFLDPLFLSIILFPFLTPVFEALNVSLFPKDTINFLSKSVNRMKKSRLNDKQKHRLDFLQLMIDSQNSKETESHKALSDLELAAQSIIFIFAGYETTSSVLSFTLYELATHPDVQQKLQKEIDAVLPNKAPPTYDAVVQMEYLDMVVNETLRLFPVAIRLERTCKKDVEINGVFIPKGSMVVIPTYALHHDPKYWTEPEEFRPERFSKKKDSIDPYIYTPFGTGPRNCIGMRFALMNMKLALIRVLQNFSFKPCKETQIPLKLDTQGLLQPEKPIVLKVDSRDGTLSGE

Turning to `CN(C)CCc1c[nH]c2ccccc12` [SPL026, N,N-dimethyltryptamine, reference compound], the half-life (as a rule, how long it takes for the measured level to halve) at 5 μM in [1] was determined as 0.255 h. For the same compound, in data set [1], the hepatocyte CLint – broadly, a measure of how fast metabolising enzymes remove a compound, apart from limits set by blood flow – at 5 μM was found to be 124 µL/min/1e6 cells. Moreover, the “substrate for CYP2D6” value on CYP2D6 [2] (CYP phenotyping) is on record as “substrates”. Moreover, at CYP2D6 [2] (setting [9]), the “intrinsic clearance, CYP isoform 2D6” value turned out to be 801 μL/min/nmol CYP. Moreover, the half-life was 0.562 h in data set [3] (0.5 mg/mL human liver mitochondrial fraction, DMSO Vehicle (no inhibitor)); greater than 6.228 h in data set [3] (human liver mitochondrial fraction, Clorgyline (MAO-A inhibitor) 100 nM); 0.542 h in data set [3] (setting [10]); greater than 4 h on CYP3A5 (setting [11]); greater than 4 h at CYP2C8 (setting [11]); greater than 4 h on CYP2B6 (setting [11]). Also, the half-life was greater than 4 h at CYP1A2 (setting [11]); greater than 4 h on CYP2C9 (setting [11]); 3.15 h at CYP2C19 (setting [11]); greater than 4 h at CYP3A4 (setting [11]); 8.6 min in [5]; 9 min at CYP2D6 [7]. For the same compound, the “Intrinsic Clearance” value in [3] (setting [10]) is on record as 42.7 μL/min/mg protein. Besides, the “intrinsic clearance, CYP isoform 3A5” value on CYP3A5 (setting [9]) is given as less than 29 μL/min/nmol CYP. Further, the “intrinsic clearance, CYP isoform 2C8” value at CYP2C8 (setting [9]) is reported as less than 29 μL/min/nmol CYP. Moreover, the “intrinsic clearance, CYP isoform 2B6” value at CYP2B6 (setting [9]) was less than 29 μL/min/nmol CYP. Besides, the “intrinsic clearance, CYP isoform 1A2” value at CYP1A2 (setting [9]) is listed as less than 29 μL/min/nmol CYP. Further, the “projected scaled intrinsic clearance, CYP isoform 2D6” value at CYP2D6 [4] is reported as 9.5 μl/min/mg microsomal protein. On CYP2C9 (setting [9]), the “intrinsic clearance, CYP isoform 2C9” value is given as less than 29 μL/min/nmol CYP. In addition, at CYP2C19 (CYP phenotyping), the “substrate for CYP2C19” value is on record as “substrates”. Besides, the “intrinsic clearance, CYP isoform 2C19” value on CYP2C19 (setting [9]) worked out at 37 μL/min/nmol CYP. Moreover, the “projected scaled intrinsic clearance, CYP isoform 2C19” value on CYP2C19 (scaled by estimated CYP abundance in human liver microsomes (0.009 nmol CYP/mg)) was 0.3 μl/min/mg microsomal protein. For the same compound, at CYP3A4 (setting [9]), the “intrinsic clearance, CYP isoform 3A4” value was less than 29 μL/min/nmol CYP. In data set [6] (human hepatocytes (Table 5)), the “% change in half-life, MAO inhibitors vs no inhibitors” value was found to be 3.82%. The “% change in intrinsic clearance, MAO inhibitors vs no inhibitors” value in data set [6] (human hepatocytes (Table 5)) is given as −4.00%. For the same compound, the “Intrinsic clearance, with inhibitors” value in [6] (human hepatocytes, with 100 nM clorgyline + 100 nM deprenyl/selegiline (Table 3)) was 13.24 μL/min/million cells; in [6] (setting [12]), 13.24 μL/min/million cells. Besides, the “Half-life, with inhibitors” value in [6] (setting [12]) was determined as 1.601 h; in data set [6] (human hepatocytes, with MAO-A/B inhibitors (Table 4; unit given only in Table 5)), 1.601 h. In addition, the “slower intrinsic clearance with inclusion of MAO inhibitors” value in data set [6] (human hepatocytes, with vs without MAO inhibitors) is roughly 4%. For the same compound, the “Half-life, without inhibitors” value in data set [6] (human hepatocytes, without MAO inhibitors (Table 4; unit given only in Table 5)) is 1.54 h; in data set [6] (setting [13]), 1.54 h. Besides, in [6] (setting [13]), the “Intrinsic clearance, without inhibitors” value turned out to be 13.77 μL/min/million cells.
As for `[2H]C([2H])(c1c[nH]c2ccccc12)C([2H])([2H])N(C)C` [D4DMT, α,α,β,β-tetradeutero-N,N-dimethyltryptamine], the “behavioural effect compared to equal doses of DMT” value in [8] is “shorter time to onset and potentiation of behaviour disrupting effects”.
